According to patent EP4467141A1, “PYRAZOLO-QUINOLINES AS SELECTIVE INHIBITORS OF GENOTOXIC STRESS-INDUCED IKK/NF- KB PATHWAYS FOR CANCER THERAPY” (Max-Delbrück-Centrum für Molekulare Medizin in der …, priority 2023, dated 2024):

Assays:
Type in all cases: cell-based
[1] = test system: NF-κB subunit p65 phosphorylation (S536); assay: Western blot of p65 phosphorylation (S536) after DNA damage (irradiation or etoposide) in U2-OS cells; conditions: 1-hour pre-treatment, irradiation (IR, 20 Gy), 90 min
Protocol: (§1) Fig.1: Identification of inhibitors specific for DNA damage-induced NF-κB activity. (A) Flowchart representing the high-throughput chemical library screening. A screen/counter-screen strategy was used by stimulating NF-κB in U2-OS cells with etoposide (50 µM for 90 min) and hits were counter-screened with TNFα (10 ng/ml for 20 min). Cells were pre-treated with compounds (10 µM) for 1 hour before stimulation, fixed, and percent p65 nuclear translocation measured by fluorescence microscopy. IC50 values were used for final selection. (B) Comparison of mean p65 nuclear translocation following either etoposide or TNFa stimulation after treatment with each counter-screened hit compound. Values were normalized to etoposide or TNFα positive controls. Specific inhibitors (red) of DNA damage-induced NF-κB signaling were defined by setting cut-off criteria (black line). […] (C) IC50 determination for MW01 (left) and MW05 (right) of p65 nuclear translocation, following either etoposide or TNFα treatment. […] IC50 noted with a dotted line. (D) Structures of compounds selected as leads for further analysis, MW01 (5-Hydroxy-10,11-dimethoxy-9H-benzo[c]indolo[3,2,1-ij][1,5]naphthyridin-9-one) and MW05 (3-Amino-7-methoxypyrazolo[3,4-b]quinolin-1-yl)-[3-(dimethylamino)phenyl]methanone). (E) Western blot analysis (top) and quantification (bottom) of NF-κB subunit p65 phosphorylation (S536) following 1-hour pre-treatment with DMSO, MW01 (10 µM), or MW05 (10 µM), in unstimulated, after 90 min irradiation (IR, 20 Gy), or after 20 min TNFα (10 ng/mL) conditions in U2- OS cells. B-actin was used as loading control after. The p-p65 signal was first normalized to β-actin loading control per sample, then each value to DMSO-treated unstimulated to evaluate relative activation of NF-κB. Ns: not significant; ***: p<0.001.
NF-κB was stimulated by DNA damage through either 20 Gy irradiation (IR) and analyzed after 90 minutes or by 10 ng/ml TNFα and analyzed after 20 minutes unless otherwise noted.
All compounds were pre-treated for 1-hour prior to NF-κB stimulation unless otherwise noted.
(§2) Cells were collected by scraping and lysed in Baeuerle lysis buffer supplemented with Protease (Thermo Fisher Scientific, 78429) and Phosphatase (Thermo Fisher Scientific, 78420) inhibitors after the appropriate treatment and time point. Proteins were quantified by Bradford assay (Bio-Rad, 5000006) and 20-50 µg of extracted proteins were loaded on 4-20% Protein Gel (Bio-Rad, 4568096) and then transferred onto a PVDF membrane (Bio-Rad, 1620177) using Tris-Glycine buffer with 20% of methanol. Blocking was performed for 1h with 5% not-fat dry milk in PBS 1X. Immunodetection was obtained using primary and secondary antibodies reported in Key Resources Table. The membranes were analyzed by ECL (Thermo Fisher Scientific, 34580) and detected by ChemiDoc XRS+ (Bio-Rad) using ImageLab software (Bio-Rad).

[2] = test system: NF-κB subunit p65 phosphorylation (S536); assay: Western blot of p65 phosphorylation (S536) after TNFα in U2-OS cells; conditions: 1-hour pre-treatment, TNFα 10 ng/ml, 20 min
Protocol: as §1, with “(D) Structures of compounds selected as leads for further analysis, MW01 (5-Hydroxy-10,11-dimethoxy-9H-benzo[c]indolo[3,2,1-ij][1,5]naphthyridin-9-one) and MW05 (3-Amino-7-methoxypyrazolo[3,4-b]quinolin-1-yl)-[3-(dimethylamino)phenyl]methanone).” left out, “B-actin was used as loading control after. The p-p65 signal was first normalized to β-actin loading control per sample, then each value to DMSO-treated unstimulated to evaluate relative activation of NF-κB. Ns: not significant; ***: p<0.001.” left out
NF-κB was stimulated by DNA damage through either 20 Gy irradiation (IR) and analyzed after 90 minutes or by 10 ng/ml TNFα and analyzed after 20 minutes unless otherwise noted. […]
Cells were collected by scraping and lysed in Baeuerle lysis buffer supplemented with Protease (Thermo Fisher Scientific, 78429) and Phosphatase (Thermo Fisher Scientific, 78420) inhibitors after the appropriate treatment and time point. Proteins were quantified by Bradford assay (Bio-Rad, 5000006) and 20-50 µg of extracted proteins were loaded on 4-20% Protein Gel (Bio-Rad, 4568096) and then transferred onto a PVDF membrane (Bio-Rad, 1620177) using Tris-Glycine buffer with 20% of methanol. […]

[3] = test system: Akt phosphorylation (S473); assay: Western blot of Akt phosphorylation (S473) in U2-OS cells; conditions: 1-hour pre-treatment
Protocol: Fig.2: MW01 and MW05 are potent and selective kinase inhibitors. […] Heatmap indicates lower IC50. […] (C) Western blot analysis of NF-κB p65 phosphorylation (S536) and Akt phosphorylation (S473) following 1-hour pre-treatment with DMSO, MW01 (10 µM), MW05 (10µM), PI-103 (1 µM), NU7441 (1 µM), or MU1210 (1 µM) in unstimulated, after 90 min irradiation (IR, 20 Gy), or after 20 min TNFα (10 ng/ml) conditions in U2-OS cells. (D) mRNA expression analysis of CLK2 (top), 48 hours after transfection with siNC, CLK2 si1, or CLK2 si2. mRNA expression analysis of NFKBIA (bottom), 48 hours after transfection with siNC, CLK2 si1, orCLK2 si2. Values are normalized to unstimulated siNC expressing cells. Statistical comparison was made between experimental conditions and respective paired siNC expressing controls. ns: not significant; **, ***, ****: p<0.01, p<0.001, p<0.000. (E) Western blot analysis of U2-OS cells after transfection with siNC or CLK2 si2 unstimulated, after irradiation (IR), or after TNFα treatment. Vinculin used as loading control. (F) IC50 (nM) of all CLK isoforms for MW01 and MW05. (G) Quantification from (E) with CLK2 knockdown and p-p65 quantification (top left and top right, respectively) and CLK4 knockdown and p-p65 (bottom left and bottom right, respectively. ns: not significant; **, ***, ****: p<0.01, p<0.001, p<0.0001.
as §2, with “Immunodetection was obtained using primary and secondary antibodies reported in Key Resources Table.” left out, “(Bio-Rad). […]” for “(Bio-Rad).”

| Structure (SMILES) | phosphorylation of p65 at serine 536 after DNA damage [1] | phosphorylation of p65 at serine 536, TNFα-stimulated [2] | reduction of p-Akt [3] |
| --- | --- | --- | --- |
| Cn1cc(-c2ccc3occ(-c4ccccc4-c4ccccc4)c3n2)cn1 [MU140, reference compound] | not | – | – |
| Cn1cc(-c2ccc3occ(-c4cccc(-c5ccncc5)c4)c3n2)cn1 [MU-1210, reference compound] | reduction in p65 phosphorylation | – | – |
| O=c1cc(N2CCOCC2)oc2c(-c3cccc4c3sc3ccccc34)cccc12 [NU-7441, reference compound] | did not reduce p-p65 | did not reduce p-p65 | – |
| Oc1cccc(-c2nc(N3CCOCC3)c3oc4ncccc4c3n2)c1 [PI-103, reference compound] | – | – | complete reduction |
